Key:
[1] = test system: LSR mRNA; assay: Northern blot of LSR mRNA in leptin-treated rat hepatocytes; type: cell-based; details: rat hepatocytes after 30 min leptin treatment
Procedure: Northern blots were performed as described previously using as a probe clone 18251 described above (Yen F. T., Masson M., Clossais-Besnard N., Andre P., Grosset J. M., Bougueleret L., Dumas J. B., Guerassimenko, O., and Bihain B. E. (1999). J Biol Chem 274, 13390-13398).

[2] = test system: db^Pas/db^Pas mice; assay: Postprandial plasma TG response after high-fat test meal in db^Pas/db^Pas mice; type: in vivo, mouse
Procedure: FIGS. 1A and 1B show the effect of leptin on postprandial plasma TG response in db/db and db^Pas/db^Pas mice. Overnight-fasted db/db (A), db^Pas/db^Pas (B) mice were gavage-fed a high-fat test meal and immediately injected intravenously (db/db) or intraperitoneally (db^Pas/db^Pas) with saline (open symbols) or 50 μg mouse recombinant leptin (closed symbols). At the indicated times, blood was collected from the tail (A) or orbital (B) vein, plasma was separated by centrifugation, and plasma TG concentrations were determined using an enzymatic kit. Each point represents the mean±SEM (db/db: saline, n=4, leptin, n=3; db^Pas/db^Pas: saline, n=6, leptin, n=7). The average plasma lipid response in 10 control C57BL6 mice is shown as a dotted line in both A and B. In a separate experiment, shown as an inset for each strain of mice, overnight fasted db/db (●) or db^Pas/db^Pas (▪) mice were gavage-fed the test meal and immediately injected intravenously with increasing concentrations of leptin. The plasma lipid response was then measured as in A and B. The area under the response curve (AUC) was then calculated using a triangulation method on Microsoft Excel between 0 and 4 hr (mg TG·h/mL). Values are presented as % of control value (test meal alone obtained in A or B). Each point represents the mean of at least 3 mice.
FIGS. 7A and 7B show a comparison of the effect of human and mouse leptin on LSR activity in rat hepatocytes and on postprandial increase in plasma TG in db^Pas/db^Pas mice. For FIG. 7A, primary cultures of rat hepatocytes were incubated 30 min at 37° C. without (open bar) or with 10 ng/mL recombinant human (solid bar) or mouse (hatched bar) leptin in Buffer A. Oleate (0.5 mM) and ^125I-LDL (20 μg/mL) were added and the cells were incubated 2 h at 37° C. The media were removed and were analyzed for TCA-soluble degradation products. The mean of duplicate determinations is shown. For FIG. 7B, db^Pas/db^Pas mice were given a test meal as previously described, followed immediately by injection i.p. of saline (open bar, n=4), human leptin (1 μg/animal; solid bar, n=3) or mouse leptin (0.25 μg/animal; hatched bar; n=3). The data represent the difference in TG concentrations measured at t=0 and the average of the concentrations at 3 and 4 hours. Results are shown as mean±SEM.
Mice that were fasted for 2-3 hours were gavage-fed 300 μL of a test meal consisting of 60% fat (37% saturated, 27% mono-, and 36% polyunsaturated fatty acids), 20% protein and 20% carbohydrate, and providing 56 kcal of energy/kg (1.5 g butter, 1.5 g sunflower oil, 2.5 g nonfat dry milk, 2.5 g sucrose and 3 ml water). […] TG concentrations were determined using a commercially available enzymatic kit with controls included in each assay (Precinorm L, Roche-Boehringer Mannheim; Lyotrol N, BioMérieux).

leptin: plasma protein of 16 kDa produced by adipocytes; recombinant human or mouse leptin, species depends on the experiment
LSR mRNA levels (Northern blots) [1]: did not increase mRNA levels significantly
area under the TG curve ([2]; 250 ng leptin per animal, AUC 0-4 h): significant reduction
decrease of the area under the postprandial TG curve ([2]; 500 ng leptin per animal (maximum effect)): > 65%
amplitude of the triglyceride response ([2]; single bolus 50 μg mouse recombinant leptin i.p. at time of test meal): decreased the amplitude of the triglyceride response
